From publication PMC5344255, “Design, Synthesis and Biochemical Evaluation of Novel Selective Estrogen Receptor Ligand Conjugates Incorporating an Endoxifen-Combretastatin Hybrid Scaffold” (Biomedicines, 2016)
Several values for one entry are separate records, joined by “and”; a condition that tells them apart may be missing. Identical values can stand only once.

What was measured:
[1] = tested on: MCF-7 human breast cancer cells; test: Lactate dehydrogenase (LDH) cytotoxicity assay in MCF-7; format: cell-based; details: % cell lysis at 10 µM
Protocol: (§1) In this assay, the release of cytoplasmic lactate dehydrogenase (LDH) is used as a measure of cell lysis. MCF-7 and MDA-MB-231 cells were seeded at a density of 1 × 10^4 cells/well in a 96-well plate and incubated for 24 h. The cells were then dosed with 2 μL volumes of the test compounds, over the concentration range 1 nM–50 μM. Cytotoxicity was determined using the CytoTox 96 nonradioactive cytotoxicity assay (Promega, Madison, WI, USA) following the manufacturer’s protocol.

human ERβ = target: T1, human ERβ (Homo sapiens, UniProt Q92731); test: Estrogen receptor fluorescence polarisation competitive binding assay, ERβ; details: fluoromone ligand
T1 construct: purchased Invitrogen; host or cells: baculovirus expression system
T1 sequence (Q92731 whole entry): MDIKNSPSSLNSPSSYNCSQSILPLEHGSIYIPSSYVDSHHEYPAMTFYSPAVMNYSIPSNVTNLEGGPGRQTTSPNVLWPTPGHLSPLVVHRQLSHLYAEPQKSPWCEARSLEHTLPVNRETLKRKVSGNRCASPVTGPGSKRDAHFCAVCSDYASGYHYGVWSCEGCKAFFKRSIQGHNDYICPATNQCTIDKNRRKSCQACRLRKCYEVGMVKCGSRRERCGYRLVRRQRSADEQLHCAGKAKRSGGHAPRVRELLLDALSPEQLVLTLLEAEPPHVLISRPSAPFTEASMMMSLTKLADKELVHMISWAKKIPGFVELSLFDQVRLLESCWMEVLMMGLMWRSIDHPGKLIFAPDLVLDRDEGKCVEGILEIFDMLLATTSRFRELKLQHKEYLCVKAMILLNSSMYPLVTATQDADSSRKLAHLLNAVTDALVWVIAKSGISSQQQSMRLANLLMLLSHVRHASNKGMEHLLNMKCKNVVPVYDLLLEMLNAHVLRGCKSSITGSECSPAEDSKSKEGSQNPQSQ

[2] = tested on: MCF-7 human breast cancer cells; test: MTT assay for antiproliferative effects in MCF-7; format: cell-based; details: Homo sapiens, MCF7, MCF-7, MTT assay
Protocol: (§2) The human breast carcinoma cell line, MCF-7, was purchased from the European Collection of Animal Cell Cultures (ECACC). The cells were maintained in MCF-7 complete medium; consisting of Eagle’s Minimum Essential Medium (MEM) supplemented with 10% (v/v) Foetal Bovine Serum (FBS), 2 mM L-glutamine, 100 μg/mL penicillin/streptomycin and 1% (v/v) non-essential amino acids. Cell cultures were maintained at 37 °C under a humidified atmosphere of 5% CO2/95% O2. The human breast carcinoma cell line, MDA, was purchased from the European Collection of Animal Cell Cultures (ECACC). The cells were maintained in MDA complete medium; consisting of Dulbecco’s Modified Eagle’s Medium (D-MEM) supplemented with 10% (v/v) Foetal Bovine Serum (FBS), 2 mM L-glutamine, 100 μg/mL penicillin/streptomycin. Cell cultures were maintained at 37 °C under a humidified atmosphere of 5% CO2/95% O2. The MTT assay was performed according to the reported protocol. The tetrazolium salt, 3-(4,5-dimethylthiazol-2-yl)-2,5-diphenyltetrazolium bromide (MTT) is taken up only by metabolically active cells and cleaved to form a formazan dye by mitochondrial dehydrogenases. Assays where repeated in three experiments performed in triplicate (unless otherwise stated) and reported results represent the mean value ± standard error mean. Graphs of percentage cell viability versus concentration of the subject compound were processed using PRISM [31].

human ERα = target: T2, human ERα (Homo sapiens, UniProt P03372); test: Estrogen receptor fluorescence polarisation competitive binding assay, ERα; details: for IC50: competitive binding, fluoromone ligand; for Selectivity (α/β): ratio of ER binding IC50 values
T2 construct: purchased Invitrogen; host or cells: baculovirus expression system
T2 sequence (P03372 1-595): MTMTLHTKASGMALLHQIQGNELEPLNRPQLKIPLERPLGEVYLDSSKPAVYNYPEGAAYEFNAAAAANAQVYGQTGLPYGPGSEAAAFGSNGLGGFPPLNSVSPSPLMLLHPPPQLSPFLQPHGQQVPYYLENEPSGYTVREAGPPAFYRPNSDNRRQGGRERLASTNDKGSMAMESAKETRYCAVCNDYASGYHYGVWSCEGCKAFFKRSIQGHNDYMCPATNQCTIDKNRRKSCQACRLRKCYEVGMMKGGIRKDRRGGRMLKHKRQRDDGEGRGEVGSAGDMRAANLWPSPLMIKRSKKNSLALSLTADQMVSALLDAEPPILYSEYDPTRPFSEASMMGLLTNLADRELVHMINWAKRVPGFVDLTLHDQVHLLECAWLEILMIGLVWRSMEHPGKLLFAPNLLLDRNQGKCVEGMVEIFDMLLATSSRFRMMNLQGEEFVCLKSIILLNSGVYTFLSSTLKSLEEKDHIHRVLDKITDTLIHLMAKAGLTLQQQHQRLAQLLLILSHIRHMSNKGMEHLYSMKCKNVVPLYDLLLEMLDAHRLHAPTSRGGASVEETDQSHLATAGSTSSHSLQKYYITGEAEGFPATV

[3] = HPLC stability study in phosphate buffer; format: physicochemical; details: pH values in the range 4–9
Protocol: Analytical high-performance liquid chromatography (HPLC) stability studies were performed using a Symmetry® column (C18, 5 µm, 4.6 × 150 mm), a Waters 2487 Dual Wavelength Absorbance detector, a Waters 1525 binary HPLC pump and a Waters 717 plus Autosampler (Waters Corporation, Milford, MA, USA). Samples were detected at wavelength of 254 nm. All samples were analysed using acetonitrile (80%):water (20%) as the mobile phase over 10 min and a flow rate of 1 mL/min. Stock solutions are prepared by dissolving 5mg of compound in 10 mL of mobile phase. Phosphate buffers at the desired pH values (4, 7.4, and 9) were prepared in accordance with the British Pharmacopoeia monograph 2015. 30 µL of stock solution was diluted with 1 mL of appropriate buffer, shaken and injected immediately. Samples were withdrawn and analysed at time intervals of t = 0 min, 5 min, 30 min, 60 min, 90 min, 120 min, 24 h and 48 h.

[4] = tested on: MDA-MB-231 human breast cancer cells; test: MTT assay for antiproliferative effects in MDA-MB-231; format: cell-based; details: MDA-MB-231, MTT assay
Protocol: as §2, with “Cell cultures were maintained at 37 °C under a humidified atmosphere of 5% CO2/95% O2.” left out, “Assays where repeated in three experiments performed in triplicate (unless otherwise stated) and reported results represent the mean value ± standard error mean.” left out

[5] = tested on: MDA-MB-231 human breast cancer cells; test: Lactate dehydrogenase (LDH) cytotoxicity assay in MDA-MB-231; format: cell-based; details: % cell lysis at 10 μM
Protocol: as §1

[6] = mean of at least three experiments in triplicate

SMILES: CCC(=C(c1ccc(O)cc1)c1ccc(OCCNC)cc1)c1ccccc1 [Compound 11, 4-{1-[4-(2-Methylaminoethoxy)phenyl]-2-phenylbut-1-enyl}phenol, reference compound]
- % Cell Death at 10 μM [1]: 23%
- IC50 (human ERβ): 118 nM
- IC50 [2, 6]: 29 nM
- IC50 ([2]; values in nM): 0.029 nM
- IC50 (human ERα): 47 nM
- Selectivity (α/β) (human ERα): 2.52

SMILES: CCC(=C(c1ccc(O)cc1)c1ccc(OCCN(C)C(=O)/C(=C/c2cc(OC)c(OC)c(OC)c2)c2ccc(OC)cc2)cc1)c1ccccc1 (mixture of isomers) [Compound 31, (E)-N-(2-{4-[(E/Z)-1-(4-Hydroxyphenyl)-2-phenylbut-1-enyl]phenoxy}ethyl)-2-(4-methoxyphenyl)-N-methyl-3-(3,4,5-trimethoxyphenyl) acrylamide]
- half-life at 14.6 µg/mL [3]: > 24 h
- % Cell Death at 10 μM [1]: 1%
- IC50 [4]: 51000 nM
- IC50 [2, 6]: 2080 nM
- % Cell Death at 10 μM [5]: 0%

SMILES: CCC(=C(c1ccc(O)cc1)c1ccc(OCCNC)cc1)c1ccc(O)cc1 [Compound 12, 4-(1-(4-(2-(Methylamino)ethoxy)phenyl)-2-(4-hydroxyphenyl)but-1-enyl)phenol]
- % Cell Death at 10 μM [1]: 11%
- IC50 (human ERβ): 39.7 nM and 40 nM
- IC50 [2, 6]: 28 nM
- IC50 (human ERα): 44.1 nM and 44 nM
- Selectivity (α/β) (human ERα): 0.90
